In patent US8759480B2, “Contoxin analogues and methods for synthesis of intramolecular dicarba bridge-containing peptides” (Syngene Limited, priority 2006, dated 2014):
Several values for one entry are separate records, joined by “and”; a condition that tells them apart may be missing. Equal values may be shown once.

Key:
[1] = test system: neuronal-type nicotinic receptors; settings: cited from earlier work
[2] = test system: neuronal-type nicotinic receptors; type: cell-based, bovine

| SMILES | effect on nicotine-stimulated release of adrenaline and noradrenaline (in words) [1] | Adrenaline Release 1st [2] | Adrenaline Release 2nd [2] | Adrenaline Release 3rd [2] | Adrenaline Release 4th [2] | Adrenaline Release % control [2] | Adrenaline Release mean [2] | Noradrenaline Release 1st [2] | Noradrenaline Release 2nd [2] | Noradrenaline Release 3rd [2] | Noradrenaline Release 4th [2] | Noradrenaline Release % control [2] | Noradrenaline Release mean [2] |
| --- | --- | --- | --- | --- | --- | --- | --- | --- | --- | --- | --- | --- | --- |
| C[C@@H]1NC(=O)[C@@H]2CSC3(SC[C@@H](C(N)=O)NC(=O)[C@H](CCCNC(=N)N)NC(=O)[C@H](Cc4cc5ccccc5[nH]4)NC1=O)SC[C@H](NC(=O)CN)C(=O)N[C@@H](CS3)C(=O)N[C@@H](CO)C(=O)N[C@@H](CC(=O)O)C(=O)N1CCCC1C(=O)N[C@@H](CCCNC(=N)N)C(=O)N2 (stereo partly drawn) [Ctx ImI, α-conotoxin ImI] | inhibit the nicotine-stimulated release |  |  |  |  |  |  |  |  |  |  |  |  |
| C[C@@H]1NC(=O)[C@@H]2CCCC[C@H](NC(=O)CN)C(=O)N[C@@H](CSSC[C@@H](C(N)=O)NC(=O)[C@H](CCCNC(=N)N)NC(=O)[C@H](Cc3cc4ccccc4[nH]3)NC1=O)C(=O)N[C@@H](CO)C(=O)N[C@@H](CC(=O)O)C(=O)N1CCCC1C(=O)N[C@@H](CCCNC(=N)N)C(=O)N2 (stereo partly drawn) [compound 118, [2,8]-Dicarba-[3,12]-Cystino Conotoxin ImI: NH2-Gly-c[Hag-Cys-Ser-Asp-Pro-Arg-Hag]-Ala-Trp-Arg-Cys)-NH2] |  | 2.94% and 2.55% | 4.40% and 3.63% | 4.46% and 2.62% | 4.09% and 3.31% | 88.260% and 65.306% | 3.97% and 3.03% | 4.52% and 4.19% | 6.29% and 5.86% | 7.00% and 4.32% | 7.34% and 5.51% | 90.859% and 69.384% | 6.29% and 4.97% |
